# Paper PMC10671052, “Naphthyl-Substituted Indole and Pyrrole Carboxylic Acids as Effective Antibiotic Potentiators—Inhibitors of Bacterial Cystathionine γ-Lyase” (International Journal of Molecular Sciences, 2023)
# What was measured:
# [1] = HEK293 cytotoxicity assay (Alamar Blue); format: cell-based; conditions: human, HEK293 cells, HEK293, 72 h
# Description: The HEK 293 cell line was obtained from the European Collection of Authenticated Cell Cultures (ECACC, cat. # 85120602, Salisbury, UK). The cells were grown in a monolayer culture in Dulbecco’s Modified Eagle’s Medium (DMEM) (PanEco, Moscow, Russia), supplemented with 2 mM L-glutamine, 1% of a penicillin/streptomycin solution (Capricorn Scientific, Ebsdorfergrund, Germany), and 10% of heat inactivated fetal bovine serum (HyClone, Cytiva, Marlborough, MA, USA) in a humidified atmosphere containing 5% of CO2 at 37 °C (Binder, Germany). For the assay, HEK 293 cells were seeded in a 96-well plate (Corning, NY, USA) in 100 μL of the complete culture medium, at a final density of 2 × 10^3 cells/well, and were cultured for 24 h for proper attachment. Subsequently, the medium was removed, and the cells were exposed to a tested inhibitor at different concentrations for 72 h in 100 μL of the fresh complete culture medium. The sensitivity of the cells to the compounds was detected using the vital dye Alamar Blue (Invitrogen, San Diego, CA, USA). The Alamar Blue assay was performed according to the procedure described by O’Brien et al.. After incubation with the tested bCSE inhibitors, 10 μL of the Alamar Blue reagent was added into each well, the cell culture plates were returned to the humidified incubator, and the fluorescence was read after 3 h. The plates were exposed to an excitation light of 545 nm wavelength, and emission at 600 nm was measured on the CLARIOstar Plus (BMG LABTECH GmbH, Ortenberg, Germany). To determine half-maximal cytotoxic concentration (CC50), a four-parameter sigmoidal curve model (GraphPad Prism 8 software) was fitted to the measurement data.
# physchem = format: physicochemical; conditions: 25 °C, pH 7.4, aqueous buffer, kinetic from dmso stock, Solubility
# Description: A stock solution of a compound (10 mM in DMSO, 10 μL) was added to 990 μL of 100 mM sodium phosphate buffer (pH 7.4) and incubated at 25 °C for 2 h with constant shaking. The suspension was filtered through the PVDF membrane filter (Merck Millipore, Burlington, MA, USA). To 320 µL of the filtrate, 80 µL of acetonitrile was added and mixed. The mixture was transferred to a vial and analyzed by ultra-high-performance liquid chromatography (UHPLC) with UV detection. Concentrations were calculated from a 5-point calibration curve. The calibration range was 1 to 100 μM. The controls were diclofenac and nicardipine. All compounds were tested in triplicate.
# Caco-2 cell monolayer = assay: Caco-2 cell permeability; format: in vitro ADME; conditions: Papp (BA) / Papp (AB); listed as lead compound
# Description: The culture medium consisted of high-glucose DMEM containing 10% of fetal bovine serum, 4 mM L-glutamine, 1% of a solution of nonessential amino acids (PanEco, Moscow, Russia), 100 U/mL penicillin, and 100 μg/mL streptomycin. The cells were maintained for 21 days at 37 °C and 5% CO2. The medium was refreshed every 3 days. A Lucifer yellow rejection assay was applied to determine cell monolayer integrity. […] The Lucifer yellow rejection value was calculated using the equation: LY % rejection = 100*(1−FIb/FIa), where FIb is the fluorescence in the basolateral compartment and FIa is the fluorescence in the apical compartment. […] Both apical-to-basolateral (AB) and basolateral-to-apical (BA) transport were assessed. For apical-to-basolateral transport, 0.3 mL of a test compound solution was added to the apical side, and 0.8 mL of HBSS with 0.5% of BSA was added to the basolateral side. For basolateral-to-apical transport, 0.8 mL of a test compound solution was added to the basolateral side and 0.3 mL of HBSS with 0.5% of BSA was added to the apical side. The Caco-2 cell monolayers were then incubated for 2 h at 37 °C. The pH values of the apical and basolateral compartments were 7.4. […] The supernatant was transferred to a vial and analyzed by liquid chromatography coupled with tandem MS (LC–MS/MS). The AB (or BA) apparent permeability coefficients (Papp, 10^–6 cm/s) were calculated according to the following formula [40, 41]: Papp = (V × ∆C)/(∆t × A × C0), where V is the volume of the receiver compartment (cm^3), C0 is the initial drug concentration in the donor compartment (μM), ∆C is the concentration in the receiver compartment (μM), ∆t is the incubation time (s), and A is the surface area of the cell monolayer (cm^2). An efflux ratio was calculated by dividing Papp (BA) by Papp (AB). All compounds were tested in duplicate.
# [2] = tested on: A. baumannii GIMC5509:ABT-52Ts19; assay: MIC of antibiotics alone and with potentiators, clinical isolate
# Description: Overnight (ON) culture of a specific strain was grown in the liquid Luria–Bertani nutrient medium (LB broth, BD Difco) for 18 h at 37 °C, with agitation at 180 rpm using an Innova 44R orbital shaker (Eppendorf, Hamburg, Germany). After a certain period, 50 µL of the ON culture was transferred into 5 mL of the LB medium and grown for 3 h at 37 °C with agitation. Growth in the liquid medium was assessed by means of turbidity of the suspension, measured using a Densi-La-Meter II densitometer (Erba Lachema s.r.o., Brno, Czech Republic). Then, the bacterial suspension was diluted to the concentration 10^6 cells/mL with sterile LB and used as a seed culture [38, 39].
# For the assessment of MICs, 96-well microtiter plates were utilized at 200 µL of a medium per well. Each well was filled with 100 µL of the seed culture. After that, 10 µL of a solution of each tested synthetic compound (potentiators) was added into each experimental well. Finally, 90 µL of twofold serial dilutions of an antibiotic in a sterile LB was added into individual wells.
# As a positive control, we set up wells with 100 µL of the bacterial culture and 100 µL of the sterile LB medium. […] Negative-control wells contained 200 µL of the sterile medium. The plates were incubated in a thermostat for 18–20 h at 37 °C. The bacterial growth was assessed as optical density at 600 nm on a CLARIOstar microplate reader (BMG LABTECH GmbH, Ortenberg, Germany)).
# in vitro [3] = assay: in vitro
# Description: A test compound (final concentration 10 μM) was incubated at 37 °C in SGF, SIF, or human plasma for 2, 2, or 4 h, respectively. 100 μL aliquots were taken from each sample and 300 μL of acetonitrile containing an internal standard was added. […] All compounds were tested in triplicate. The percentage of a remaining compound after incubation was determined based on the chromatographic peak area of the sample after incubation and that of time zero (freshly prepared and injected) sample.
# in vitro [4] = format: in vitro ADME; conditions: human, plasma, pH 7.4, Fraction bound fb
# Description: Plasma protein binding was assessed using RED device inserts with built-in cellulose acetate dialysis membranes (molecular weight cutoff: 8 kDa). The final concentration of the test compound in human plasma was 5 μM. The samples were prepared by placing 300 μL of human plasma into the plasma compartment of the RED device and 500 μL of phosphate-buffered saline (pH 7.4) into the buffer compartment. The RED device was fixed to a shaker, placed in a CO2 (5%) incubator, and incubated for 6 h at 37 °C. After an equilibration step, 100 μL aliquots were taken from each compartment; 100 μL of plasma was added to the buffer compartment aliquot and 100 μL of buffer was added to the plasma compartment aliquot. After mixing, 600 μL of acetonitrile containing an internal standard was added. […] All compounds were tested in duplicate. Fraction bound fb was determined via the following equation: fb (%) = [1 − (Cb/Cp)] × 100, where Cb is the concentration of an analyte in the buffer compartment (μM), and Cp is the concentration of the analyte in the plasma compartment (μM).
# [5] = A. baumannii GIMC5509:ABT-52Ts19, potentiator 50 µg/mL
compound,measurement,setting,value
O=C(O)c1cc2ccccc2n1Cc1cccc2ccccc12 [Compound 2a],CC50 at 72 h,[1],291 ± 8.11 µM
same,solubility at 2 h,physchem,> 100 µM
same,Efflux ratio,Caco-2 cell monolayer,less than 2.0
same,MIC of Tacillin in combination with potentiator,"[2]; A. baumannii GIMC5509:ABT-52Ts19, piperacillin + tazobactam, potentiator 50 µg/mL",64 µg/mL
same,MIC of Cefepim in combination with potentiator,[2]; [5],256 µg/mL
same,MIC of Meropenem in combination with potentiator,[2]; [5],32 µg/mL
same,"Stability in human plasma, % Remaining at 4 h","in vitro [3]; 4 h, 10 μM",97.6%
same,"remaining at 4 h, 10 μM","in vitro [3]; human, plasma, Stability in human plasma, % Remaining at 4 h",97.6 ± 7.95%
same,"Stability in SGF, % Remaining at 2 h","in vitro [3]; simulated gi fluid, 2 h, 10 μM",91.9%
same,"Stability in SIF, % Remaining at 2 h","in vitro [3]; simulated gi fluid, 2 h, 10 μM",104.1%
same,"remaining at 2 h, 10 μM","in vitro [3]; simulated gi fluid, Stability in SGF",91.9 ± 2.68%
same,"remaining at 2 h, 10 μM","in vitro [3]; simulated gi fluid, Stability in SIF",104 ± 14.2%
same,"fraction unbound at 6 h, 5 μM",in vitro [4],< 0.01
